Reference: patent US9139576B2, “Aminomethyl biaryl benzotriazole derivatives” (Merck Sharp & Dohme Corp., priority 2011, dated 2015)

Target: T1, recombinant human mGluR2 (Homo sapiens, UniProt Q14416)
T1 construct: expressed in transfected cells
Test: FLIPR Ca2+ mobilization assay, potentiation of mGluR2
Format: cell-based
Conditions: potentiation with EC20 glutamate (900 nM); CHO dhfr- cells expressing human mGluR2 and Gα16
Method: Potencies are determined as follows. The compounds of the present invention may be tested in a fluorescence laser imaging plate reader (FLIPR) based assay. This assay is a common functional assay to monitor Ca^2+ mobilization in whole cells expressing recombinant receptor coupled with a promiscuous G-protein. CHO dhfr-cells stably expressing recombinant human mGluR2 and Gα16 loaded with Fluo-4 AM (Invitrogen, Carlsbad Calif.) are treated with varying concentrations of compounds and the Ca^2+ response is monitored on a FLIPR384 (Molecular Devices, Sunnydale Calif.) for agonist activity. The potentiation response is monitored after a subsequent addition of an EC20 concentration of glutamate (900 nM). The maximum calcium response at each concentration of compound for agonism or potentiation are plotted as dose responses curves fitted with a four parameters logistic equation giving EC50 and Hill coefficient using the iterative non linear curve fitting software program.

T1 sequence (Q14416 19-872): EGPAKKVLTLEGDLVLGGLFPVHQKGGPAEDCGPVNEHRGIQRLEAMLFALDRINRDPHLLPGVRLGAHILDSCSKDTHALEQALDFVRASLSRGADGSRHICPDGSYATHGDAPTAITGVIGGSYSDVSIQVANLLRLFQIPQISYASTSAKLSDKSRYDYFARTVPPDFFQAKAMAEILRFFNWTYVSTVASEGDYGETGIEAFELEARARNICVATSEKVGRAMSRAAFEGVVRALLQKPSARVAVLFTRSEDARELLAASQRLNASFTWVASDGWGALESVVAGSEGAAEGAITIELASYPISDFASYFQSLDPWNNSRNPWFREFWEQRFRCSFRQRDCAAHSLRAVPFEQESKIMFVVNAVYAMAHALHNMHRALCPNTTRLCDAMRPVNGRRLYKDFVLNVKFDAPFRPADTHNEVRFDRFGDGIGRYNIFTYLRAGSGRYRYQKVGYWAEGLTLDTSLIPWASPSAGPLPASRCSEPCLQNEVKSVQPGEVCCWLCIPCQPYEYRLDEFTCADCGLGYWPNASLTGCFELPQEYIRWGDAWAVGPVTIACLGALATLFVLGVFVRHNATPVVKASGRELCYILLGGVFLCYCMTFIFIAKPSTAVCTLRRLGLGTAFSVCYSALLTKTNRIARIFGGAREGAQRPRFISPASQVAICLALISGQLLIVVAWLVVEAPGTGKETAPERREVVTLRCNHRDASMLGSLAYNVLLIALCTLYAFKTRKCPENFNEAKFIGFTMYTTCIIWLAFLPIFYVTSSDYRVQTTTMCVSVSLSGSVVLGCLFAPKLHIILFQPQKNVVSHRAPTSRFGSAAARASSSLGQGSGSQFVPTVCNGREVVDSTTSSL

EC50 [µM] | SMILES
0.056 | CN1C(=O)CN(Cc2ccc(-c3ccc4c(nnn4CC4CC4)c3C=O)cc2)C1=O [Example 20, 1-(Cyclopropylmethyl)-5-{4-[(3-methyl-2,4-dioxoimidazolidin-1-yl)methyl]phenyl}-1H-benzotriazole-4-carbaldehyde]
0.841 | CN1C(=O)CN(Cc2ccc(-c3ccc4c(nnn4CC4CC4)c3CO)cc2)C1=O [Example 21, 1-{4-[1-(Cyclopropylmethyl)-4-(hydroxymethyl)-1H-benzotriazol-5-yl]benzyl}-3-methylimidazolidine-2,4-dione]
0.014 | CN1C(=O)CN(Cc2ccc(-c3ccc4c(nnn4CC4CC4)c3CF)cc2)C1=O [Example 22, 1-{4-[1-(Cyclopropylmethyl)-4-(fluoromethyl)-1H-benzotriazol-5-yl]benzyl}-3-methylimidazolidine-2,4-dione]
0.196 | CN1C(=O)CN(Cc2ccc(-c3ccc4c(c3)nnn4CC3CC3)cc2)C1=O [Example 28, 1-{4-[1-(Cyclopropylmethyl)-1H-benzotriazol-5-yl]benzyl}-3-methylimidazolidine-2,4-dione]
0.0114 | CN1C(=O)CN(Cc2ccc(-c3ccc4c(nnn4CC4CC4)c3Cl)cc2)C1=O [Example 29, 1-{4-[4-Chloro-1-(cyclopropylmethyl)-1H-benzotriazol-5-yl]benzyl}-3-methylimidazolidine-2,4-dione]
0.053 | [N-]=[N+]=NCc1ccc(-c2ccc3c(nnn3CC3CC3)c2Cl)cc1 [Example 37, 5-[4-(Azidomethyl)phenyl]-4-chloro-1-(cyclopropylmethyl)-1H-benzotriazole]
2.32 | NCc1ccc(-c2ccc3c(nnn3CC3CC3)c2Cl)cc1 [Example 38, 1-{4-[4-Chloro-1-(cyclopropylmethyl)-1H-benzotriazol-5-yl]phenyl}methanamine]
0.049 | C[C@@H](O)C(=O)NCc1ccc(-c2ccc3c(nnn3CC3CC3)c2Cl)cc1 [Example 39, (2R)—N-{4-[4-chloro-1-(cyclopropylmethyl)-1H-benzotriazol-5-yl]benzyl}-2-hydroxypropanamide]
0.0114 | O=C1CN(Cc2ccc(-c3ccc4c(nnn4CC4CC4)c3Cl)cc2)C(=O)N1 [Example 51, 1-{4-[4-Chloro-1-(cyclopropylmethyl)-1H-benzotriazol-5-yl]benzyl}imidazolidine-2,4-dione]
0.08 | CC(C)(C)OC(=O)N1CCN(Cc2ccc(-c3ccc4c(nnn4CC4CC4)c3Cl)cc2)CC1 [Example 52, tert-Butyl 4-{4-[4-chloro-1-(cyclopropylmethyl)-1H-benzotriazol-5-yl]benzyl}piperazine-1-carboxylate]
0.234 | Clc1c(-c2ccc(CN3CCNCC3)cc2)ccc2c1nnn2CC1CC1 [Example 71, 4-Chloro-1-(cyclopropylmethyl)-5-[4-(piperazin-1-ylmethyl)phenyl]-1H-benzotriazole]
0.0304 | N#CCC(=O)N1CCN(Cc2ccc(-c3ccc4c(nnn4CC4CC4)c3Cl)cc2)CC1 [Example 72, 3-(4-{4-[4-Chloro-1-(cyclopropylmethyl)-1H-benzotriazol-5-yl]benzyl}piperazin-1-yl)-3-oxopropanenitrile]
0.124 | CCOC(=O)CNC(=O)NCc1ccc(-c2ccc3c(nnn3CC3CC3)c2Cl)cc1 [Example 83, Ethyl N-({4-[4-chloro-1-(cyclopropylmethyl)-1H-benzotriazol-5-yl]benzyl}carbamoyl)glycinate]
0.0349 | O=C1CNC(=O)N1Cc1ccc(-c2ccc3c(nnn3CC3CC3)c2Cl)cc1 [Example 84, 3-{4-[4-Chloro-1-(cyclopropylmethyl)-1H-benzotriazol-5-yl]benzyl}imidazolidine-2,4-dione]
0.0089 | CN1CC(=O)N(Cc2ccc(-c3ccc4c(nnn4CC4CC4)c3Cl)cc2)C1=O [Example 85, 3-{4-[4-Chloro-1-(cyclopropylmethyl)-1H-benzotriazol-5-yl]benzyl}-1-methylimidazolidine-2,4-dione]

Further lines, the compound ahead of its results:

SMILES | EC50 [µM]
CN1C(=O)CN(Cc2ccc(-c3ccc4c(nnn4CC4CC4)c3C(F)(F)F)c(F)n2)C1=O [Example 1, 1-({5-[1-(Cyclopropylmethyl)-4-(trifluoromethyl)-1H-benzotriazol-5-yl]-6-fluoropyridin-2-yl}methyl)-3-methylimidazolidine-2,4-dione] | 0.0173
CN1C(=O)CN(Cc2ccc(-c3ccc4c(nnn4CC4CC4)c3C(F)(F)F)cc2)C1=O [Example 2, 1-{4-[1-(Cyclopropylmethyl)-4-(trifluoromethyl)-1H-benzotriazol-5-yl]benzyl}-3-methylimidazolidine-2,4-dione] | 0.0058
O=C1CN(Cc2ccc(-c3ccc4c(nnn4CC4CC4)c3C(F)(F)F)cc2)C(=O)N1 [Example 4, 1-{4-[1-(Cyclopropylmethyl)-4-(trifluoromethyl)-1H-benzotriazol-5-yl]benzyl}imidazolidine-2,4-dione] | 0.00921
C[C@H](O)C(=O)NCc1ccc(-c2ccc3c(nnn3CC3CC3)c2C(F)(F)F)cc1 [Example 5, (2S)—N-{4-[1-(Cyclopropylmethyl)-4-(trifluoromethyl)-1H-benzotriazol-5-yl]benzyl}-2-hydroxypropanamide] | 0.0591
Cn1c(=O)[nH]n(Cc2ccc(-c3ccc4c(nnn4CC(C)(C)C)c3Br)cc2)c1=O [Example 7, 1-{4-[4-Bromo-1-(2,2-dimethylpropyl)-1H-benzotriazol-5-yl]benzyl}-4-methyl-1,2,4-triazolidine-3,5-dione] | 0.532
CC(C)Cn1nnc2c(Br)c(-c3ccc(CN4CC(=O)N(C)C4=O)cc3)ccc21 [Example 8, 1-{4-[4-Bromo-1-(2-methylpropyl)-1H-benzotriazol-5-yl]benzyl}-3-methylimidazolidine-2,4-dione] | 0.003
CC(C)Cn1nnc2c(C(F)(F)F)c(-c3ccc(CN4CC(=O)N(C)C4=O)cc3)ccc21 [Example 9, 3-Methyl-1-{4-[1-(2-methylpropyl)-4-(trifluoromethyl)-1H-benzotriazol-5-yl]benzyl}imidazolidine-2,4-dione] | 0.0061
CN1C(=O)CN(Cc2ccc(-c3ccc4c(nnn4CC4CC4)c3Br)cc2)C1=O [Example 10, 1-{4-[4-Bromo-1-(cyclopropylmethyl)-1H-benzotriazol-5-yl]benzyl}-3-methylimidazolidine-2,4-dione] | 0.0053
CSc1c(-c2ccc(CN3CC(=O)N(C)C3=O)c(F)c2)ccc2c1nnn2CC1CC1 [Example 15, 1-{4-[1-(Cyclopropylmethyl)-4-(methylsulfanyl)-1H-benzotriazol-5-yl]-2-fluorobenzyl}-3-methylimidazolidine-2,4-dione] | 0.0066
CN1C(=O)CN(Cc2ccc(-c3ccc4c(nnn4CC4CC4)c3S(C)(=O)=O)cc2F)C1=O [Example 16, 1-{4-[1-(Cyclopropylmethyl)-4-(methylsulfonyl)-1H-benzotriazol-5-yl]-2-fluorobenzyl}-3-methylimidazolidine-2,4-dione] | 0.245
CN1C(=O)CN(Cc2ccc(-c3ccc4c(nnn4CC4CC4)c3[S+](C)[O-])cc2F)C1=O (stereo not shown) [Example 17, 1-{4-[1-(Cyclopropylmethyl)-4-(methylsulfinyl)-1H-benzotriazol-5-yl]-2-fluorobenzyl}-3-methylimidazolidine-2,4-dione] | 1.25
CN1C(=O)CN(Cc2ccc(-c3ccc4c(nnn4CC4CC4)c3C#N)cc2)C1=O [Example 18, 1-(Cyclopropylmethyl)-5-{4-[(3-methyl-2,4-dioxoimidazolidin-1-yl)methyl]phenyl}-1H-benzotriazole-4-carbonitrile] | 0.039
CCc1c(-c2ccc(CN3CC(=O)N(C)C3=O)cc2)ccc2c1nnn2CC1CC1 [Example 19, 1-{4-[1-(Cyclopropylmethyl)-4-ethyl-1H-benzotriazol-5-yl]benzyl}-3-methylimidazolidine-2,4-dione] | 0.0078
